Results taken from article PMC11484510, “Antibacterial activity of structurally diverse natural prenylated isobavachalcone derivatives” (RSC Advances, 2024).
In brackets after ≈: the same amount, converted by molar mass. Entries after “also recorded” stand apart in the source; their conditions may differ. Like-named read-outs stand apart in the source and are kept apart here.

Tests used:
E. coli ATCC 25922 = test: MIC, broth microdilution (CLSI), Alamar blue; assay type: cell-based; conditions: E. coli ATCC 25922, 24 hours at 37 °C, read-out: Minimum inhibitory concentration (MIC) E. coli
From the text: (§1) The bacterial strains S. aureus ATCC 29213, MRSA ATCC 15187, E. coli ATCC 25922, and P. aeruginosa ATCC 27853 were obtained from ATCC (American Type Culture Collection). Cation-adjusted Mueller–Hinton broth (MHB; Becton–Dickinson, Cockeysville, MD) was used to determine the minimum inhibitory concentration (MIC). Mueller–Hinton agar (MHA; Becton–Dickinson) was used for minimum bactericidal concentration (MBC) studies. Alamar blue (Himedia) was used to detect the MIC value.
(§2) The antibacterial activity of the compounds against S. aureus ATCC 29213, MRSA ATCC 15187, E. coli ATCC 25922, and P. aeruginosa ATCC 27853 was determined through a broth microdilution method according to the guidelines of the Clinical and Laboratory Standards Institute (CLSI).[50] […] Growth control and media control were employed along with 2% DMSO as vehicle control.
(§3) In a 96-well flat bottom plate, the test compounds were two-fold serially diluted in Mueller Hinton Broth (MHB). The final concentrations of the compounds ranged from 100 to 0.08 μM. 100 μL of standardized bacterial inoculum with turbidity equivalent to 0.5 McFarland standard (1.5 × 10^8 CFU mL^−1) was diluted 1 : 100 (1.5 × 10^6 CFU mL^−1) in Mueller Hinton Broth and inoculated in the plates.[51] The plates were incubated for 24 hours at 37 °C. After incubation, 10 μL of freshly prepared Alamar blue (Himedia) was added to each well of the plate, and plates were further incubated at 37 °C for 30 minutes. After incubation, the fluorescence was measured at excitation/emission of 540–570/580–610 nm. The percentage inhibition and viability were calculated for the controls, and the Gompertz curve was utilized to estimate the minimum inhibitory concentration.

P. aeruginosa ATCC 27853 = test: MIC, broth microdilution (CLSI), Alamar blue; assay type: cell-based; conditions: P. aeruginosa ATCC 27853, 24 hours at 37 °C, read-out: Minimum inhibitory concentration (MIC) P. aeruginosa
From the text: as §1, §2, §3

S. aureus ATCC 29213 [1] = test: MIC, broth microdilution (CLSI), Alamar blue; assay type: cell-based; conditions: S. aureus ATCC 29213, 24 hours at 37 °C, read-out: Minimum inhibitory concentration (MIC) S. aureus
From the text: as §1, §2, §3

S. aureus = test: Cell integrity analysis by PI staining; assay type: cell-based; conditions: 1× MIC and 2× MIC, 30 minutes, compared to the untreated cells
Description: Propidium iodide (PI) indicates cell integrity, emitting a red fluorescence signal. PI's polar and hydrophilic nature impedes its entrance within active bacterial cells, but within perforated dead cells, it can easily bind to nucleic acid (DNA/RNA).[32,60]S. aureus bacterial cells were incubated overnight at 37 °C and diluted further 1 : 100 in Mueller Hinton Broth (MHB). The diluted culture was grown until its OD600 reached 0.5. […] Vancomycin was used as a drug control at 1× MIC, while untreated bacterial cells were used as growth control. The samples were centrifuged at 5000 rpm speed at 4 °C temperature for 10 minutes, and the pellet was washed two times using phosphate-buffered saline pH-7.4 (PBS). To stain the sample (dead cells), 3 μL PI of 20.0 mM concentration was added to the 1 mL solution (pellet resuspended in PBS) and incubated for 15 minutes. To remove the dye, the samples were centrifuged again and washed with PBS once. The final pellet was resuspended in 1 mL of PBS, and 30 μL of each undiluted sample was used to obtain fluorescence imaging. The cells were observed under fluorescence microscopy.[61]

MRSA ATCC 15187 [2] = test: MIC, broth microdilution (CLSI), Alamar blue; assay type: cell-based, Methicillin-resistant S. aureus; conditions: MRSA ATCC 15187, 24 hours at 37 °C, read-out: Minimum inhibitory concentration (MIC) MRSA
From the text: as §1, §2, §3

[3] = Cell viability assay (MTT); assay type: cell-based, murine; conditions: mouse, RAW 264.7 macrophage cells; RAW 264.7 macrophage cell line, MTT assay
Description: RAW 264.7 cells were acquired from the American type culture collection (ATCC, Manassas, VA) and cultured in Dulbecco's modified eagle's medium (DMEM, Gibco, Life Technologies, NY) supplemented with 10% fetal bovine serum (FBS) at 37 °C and 5% CO2. MTT dye (Himedia) was used to detect CC50 values. The antibiotics ciprofloxacin hydrochloride monohydrate (Himedia), kanamycin sulfate (Himedia), and vancomycin (Himedia) were used for reference in microbiological assays.
The effect of compounds (IBC, IBC-2, and IBC-3) on the viability of cells was evaluated at different concentrations against macrophage cell lines through the 3-(4,5-dimethylthiazol2-yl)-2, 5-diphenyltetrazolium bromide (MTT) assay. The RAW 264.7 cells are monocyte/macrophage-like cells originating from an Abelson leukemia virus-transformed cell line derived from BALB/c mice. Due to their reliability and consistency, these cell lines are widely utilized for both in vitro and in vivo analyses.[52] The MTT assay is a colorimetric assay used to measure the viability and cytotoxicity of cells. The cells (2 × 10^4 cells per well) were grown at 37 °C with 5% CO2 for 48 hours, then exposed to compounds with different concentrations. […] After 20–21 hours, 20 μL of MTT dye at 2.5 mg mL^−1 concentration was added to each well and incubated for 4 hours. 100 μL DMSO solubilized the water-insoluble purple and white formazan produced.[53] The formation of the formazan salt by mitochondrial dehydrogenases was measured at 570.0 nm after incubating for 20 min. The percentage cytotoxicity was calculated with respect to the untreated cells, and the CC50 value was calculated. CC50 was defined as the concentration of an inhibitor that reduces cellular activities by 50% compared to untreated control cultures. The CC50 values were calculated as the concentration where the absorbance was reduced by 50% using GraphPad Prism software.[54] The selectivity index (SI) determines the safety profile of the compound. It is calculated as the ratio of compound concentration at which 50% of cell growth is inhibited compared to untreated cells (CC50) to the effective inhibiting concentration against bacterial strain (MIC). The high SI (>10 fold of MIC) of a drug is proven to have a favorable safety profile.[28] Selectivity index (SI) = CC50 of the compound (μM)/MIC of the compound (μM).

MRSA ATCC 15187 [4] = test: MBC, plating on MHA; assay type: cell-based, Methicillin-resistant S. aureus; conditions: Staphylococcus aureus; more than 99.9% of the cells killed; read-out: Minimum bactericidal concentration (MBC) MRSA
From the text: as §1
MBC is defined as the lowest concentration of the compound at which more than 99.9% of the cells were killed compared with the growth control. The minimum compound concentration at which no visible bacterial growth was observed was taken as the Minimum Bactericidal Concentration (MBC).[50]

S. aureus ATCC 29213 [5] = test: Time-kill assay; assay type: cell-based

CC(C)=CCc1c(O)ccc2c1O/C(=C\c1ccc(O)cc1)C2=O [IBC-3, (Z)-6-hydroxy-2-(4-hydroxybenzylidene)-7-(3-methylbut-2-en-1-yl)benzofuran-3(2H)-one]
MIC (E. coli ATCC 25922): 23 µM (≈ 7.41 µg/mL)
MIC (E. coli ATCC 25922; Escherichia coli, ATCC25922): 23 µM (≈ 7.41 µg/mL)
MIC (P. aeruginosa ATCC 27853): 24 µM (≈ 7.74 µg/mL)
MIC (P. aeruginosa ATCC 27853; Pseudomonas aeruginosa, ATCC27853, 24 h): 24 µM (≈ 7.74 µg/mL)
MIC (S. aureus ATCC 29213 [1]): 10 µM (≈ 3.22 µg/mL)
MIC (S. aureus ATCC 29213 [1]; Staphylococcus aureus, ATCC29213): 10 µM (≈ 3.22 µg/mL)
PI red fluorescence (cell integrity) (S. aureus): notably increased intensity of red fluorescence
MIC (MRSA ATCC 15187 [2]): 6 µM (≈ 1.93 µg/mL)
MIC (MRSA ATCC 15187 [2]; Staphylococcus aureus): 6 µM (≈ 1.93 µg/mL)
CC50 [3]: 50 µM
MBC (MRSA ATCC 15187 [4]): 25 µM (≈ 8.06 µg/mL)
CFU count of S. aureus ATCC 29213 in time-kill study (S. aureus ATCC 29213 [5]; 2× MIC and 4× MIC, with increasing time (up to 24 h)): below the detection limit
Time-kill profile (S. aureus ATCC 29213 [5]; MIC, 2× MIC, 4× MIC, 1 h to 24 h, 37 °C): concentration-dependent killing effect; also recorded: concentration and time-dependent killing effects
